Source: ChEMBL document CHEMBL1156893, “Structure-activity relationships amongst 4-position quinoline methanol antimalarials that inhibit the growth of drug sensitive and resistant strains of Plasmodium falciparum” (Bioorg Med Chem Lett, 2010)
≈ marks a conversion by molar mass, not a printed value.

What was measured:
[1] = Cytotoxicity against mouse RAW264.7 cells; type: cell-based; conditions: read-out: LC50 (the source's name)
[2] = tested on: Plasmodium falciparum; assay: Antimalarial activity against chloroquine-resistant and mefloquine-sensitive Plasmodium falciparum W2; type: functional, organism-based
[3] = tested on: Plasmodium falciparum; assay: Antimalarial activity against chloroquine, pyrimethamine and mefloquine-resistant Plasmodium falciparum TM1C235; type: functional, organism-based
[4] = tested on: Plasmodium falciparum; assay: Antimalarial activity against Plasmodium falciparum TM90C2A; type: functional, organism-based
[5] = tested on: Plasmodium falciparum; assay: Antimalarial activity against chloroquine and mefloquine-sensitive Plasmodium falciparum D6; type: functional
[6] = Half life in mouse liver microsomes; type: ADME, Microsome
[7] = Apparent permeability from apical to basolateral side of MDCK cell monolayer expressing MDR1; type: ADME, cell-based, Canis lupus familiaris; conditions: dog
[8] = tested on: Plasmodium berghei; assay: Antimalarial activity against Plasmodium berghei infected in ICR mice (Mus musculus) assessed as delay in mortality at 160 mg/kg, perorally for 3 days; type: functional, organism-based; set-up: dose 160 mg/kg

| SMILES | CC50 [1] | IC90 [2] | IC90 [3] | IC90 [4] | IC90 [5] | half-life [6] | IC50 [2] | IC50 [3] | IC50 [4] | Papp A→B [7] | survival time [8] |
| --- | --- | --- | --- | --- | --- | --- | --- | --- | --- | --- | --- |
| OC(CNCCc1ccccc1)c1cc(C(F)(F)F)nc2c(C(F)(F)F)cccc12 (stereo not given) | 9.64 µg/mL (≈ 22.5 µM) | 0.023 µg/mL (≈ 0.0537 µM) | 0.043 µg/mL (≈ 0.1 µM) | 0.023 µg/mL (≈ 0.0537 µM) | 0.019 µg/mL (≈ 0.0444 µM) |  |  |  |  |  |  |
| CC(C)c1nccn1CC(O)c1cc(C(F)(F)F)nc2c(C(F)(F)F)cccc12 (stereo not given) | 50.1 µg/mL (≈ 120 µM) |  |  |  | > 0.5 µg/mL | 10 min | > 0.5 µg/mL | > 0.5 µg/mL | > 0.5 µg/mL |  |  |
| NCC(O)c1cc(C(F)(F)F)nc2c(C(F)(F)F)cccc12 (stereo not given) | 8.07 µg/mL (≈ 24.9 µM) | 0.4 µg/mL (≈ 1.23 µM) | > 0.5 µg/mL | > 0.5 µg/mL | 0.47 µg/mL (≈ 1.45 µM) |  |  |  |  |  |  |
| OC(CNc1ccccc1)c1cc(C(F)(F)F)nc2c(C(F)(F)F)cccc12 (stereo not given) | 22.3 µg/mL (≈ 55.7 µM) | 0.377 µg/mL (≈ 0.942 µM) | 0.437 µg/mL (≈ 1.09 µM) | 0.5 µg/mL (≈ 1.25 µM) | 0.484 µg/mL (≈ 1.21 µM) |  |  |  |  |  |  |
| COCCNCC(O)c1cc(C(F)(F)F)nc2c(C(F)(F)F)cccc12 (stereo not given) | 38.2 µg/mL (≈ 100 µM) | 0.059 µg/mL (≈ 0.154 µM) | 0.093 µg/mL (≈ 0.243 µM) | 0.1 µg/mL (≈ 0.262 µM) | 0.015 µg/mL (≈ 0.0392 µM) |  |  |  |  | 32 ×10⁻⁶ cm/s |  |
| OCCNCC(O)c1cc(C(F)(F)F)nc2c(C(F)(F)F)cccc12 (stereo not given) |  | 0.49 µg/mL (≈ 1.33 µM) | 0.485 µg/mL (≈ 1.32 µM) | 0.388 µg/mL (≈ 1.05 µM) | 0.26 µg/mL (≈ 0.706 µM) |  |  |  |  |  |  |
| CCCc1nccn1CC(O)c1cc(C(F)(F)F)nc2c(C(F)(F)F)cccc12 (stereo not given) | 50.1 µg/mL (≈ 120 µM) | 0.32 µg/mL (≈ 0.767 µM) | 0.25 µg/mL (≈ 0.599 µM) | 0.24 µg/mL (≈ 0.575 µM) | 0.36 µg/mL (≈ 0.863 µM) | 8 min |  |  |  |  |  |
| CSCCCNCC(O)c1cc(C(F)(F)F)nc2c(C(F)(F)F)cccc12 (stereo not given) | 8.62 µg/mL (≈ 20.9 µM) | 0.036 µg/mL (≈ 0.0873 µM) |  |  | 0.01 µg/mL (≈ 0.0242 µM) |  |  |  |  | 38 ×10⁻⁶ cm/s |  |
| OC(c1cc(C(F)(F)F)nc2c(C(F)(F)F)cccc12)C1CCCCN1 (racemic) [MEFLOQUINE] |  |  |  |  |  |  |  |  |  | 9.4 ×10⁻⁶ cm/s |  |
| CNCC(O)c1cc(C(F)(F)F)nc2c(C(F)(F)F)cccc12 (stereo not given) | 13.7 µg/mL (≈ 40.4 µM) | 0.045 µg/mL (≈ 0.133 µM) |  |  | 0.017 µg/mL (≈ 0.0503 µM) | 60 min |  |  |  | 24 ×10⁻⁶ cm/s |  |
| Cc1nc2ccccc2n1CC(O)c1cc(C(F)(F)F)nc2c(C(F)(F)F)cccc12 (stereo not given) |  | 0.22 µg/mL (≈ 0.501 µM) | 0.31 µg/mL (≈ 0.706 µM) | 0.32 µg/mL (≈ 0.728 µM) | 0.11 µg/mL (≈ 0.25 µM) | 9 min |  |  |  |  |  |
| OC(CNCCNCc1ccccc1)c1cc(C(F)(F)F)nc2c(C(F)(F)F)cccc12 (stereo not given) | 8.28 µg/mL (≈ 18.1 µM) | 0.029 µg/mL (≈ 0.0634 µM) |  |  | 0.006 µg/mL (≈ 0.0131 µM) |  |  |  |  | 8.4 ×10⁻⁶ cm/s | 10 days |
| CN(C)CC(O)c1cc(C(F)(F)F)nc2c(C(F)(F)F)cccc12 (stereo not given) | 24.6 µg/mL (≈ 69.9 µM) | 0.069 µg/mL (≈ 0.196 µM) | 0.079 µg/mL (≈ 0.224 µM) | 0.173 µg/mL (≈ 0.491 µM) | 0.02 µg/mL (≈ 0.0568 µM) |  |  |  |  |  |  |
| OC(c1cc(C(F)(F)F)nc2c(C(F)(F)F)cccc12)C1CCCCN1 (stereo not given) [MEFLOQUINE] |  |  |  |  |  | > 60 min |  |  |  |  |  |
| OC(CNCC(F)(F)F)c1cc(C(F)(F)F)nc2c(C(F)(F)F)cccc12 (stereo not given) | 32.1 µg/mL (≈ 78.9 µM) |  |  |  | > 0.5 µg/mL |  | > 0.5 µg/mL | > 0.5 µg/mL | > 0.5 µg/mL |  |  |
| CCc1nc(C)cn1CC(O)c1cc(C(F)(F)F)nc2c(C(F)(F)F)cccc12 (stereo not given) | 25.7 µg/mL (≈ 61.6 µM) | 0.043 µg/mL (≈ 0.103 µM) | 0.056 µg/mL (≈ 0.134 µM) | 0.057 µg/mL (≈ 0.137 µM) | 0.069 µg/mL (≈ 0.165 µM) | 22 min |  |  |  |  |  |
| CCCCN(CCCC)CC(O)c1cc(C(F)(F)F)nc2c(C(F)(F)F)cccc12 (stereo not given) | 20.1 µg/mL (≈ 46 µM) | 0.011 µg/mL (≈ 0.0252 µM) | 0.027 µg/mL (≈ 0.0619 µM) | 0.019 µg/mL (≈ 0.0435 µM) | 0.002 µg/mL (≈ 0.00458 µM) |  |  |  |  |  |  |
| CC(C)CNCC(O)c1cc(C(F)(F)F)nc2c(C(F)(F)F)cccc12 (stereo not given) | 27.1 µg/mL (≈ 71.3 µM) | 0.013 µg/mL (≈ 0.0342 µM) | 0.015 µg/mL (≈ 0.0394 µM) | 0.021 µg/mL (≈ 0.0552 µM) | 0.002 µg/mL (≈ 0.00526 µM) | 27 min |  |  |  |  |  |
| CC(C)NCC(O)c1cc(C(F)(F)F)nc2c(C(F)(F)F)cccc12 (stereo not given) | 5.2 µg/mL (≈ 14.2 µM) |  | 0.023 µg/mL (≈ 0.0628 µM) |  | 0.005 µg/mL (≈ 0.0136 µM) | 60 min |  |  |  |  |  |
| CCCCCCC(O)c1cc(C(F)(F)F)nc2c(C(F)(F)F)cccc12 (stereo not given) |  |  |  |  | > 0.5 µg/mL |  | > 0.5 µg/mL | > 0.5 µg/mL | > 0.5 µg/mL |  |  |
| OC(CNCCF)c1cc(C(F)(F)F)nc2c(C(F)(F)F)cccc12 (stereo not given) |  |  |  |  | > 0.5 µg/mL |  | > 0.5 µg/mL | > 0.5 µg/mL | > 0.5 µg/mL |  |  |
| CCCN(CCC)CC(O)c1cc(C(F)(F)F)nc2c(C(F)(F)F)cccc12 (stereo not given) | 33.2 µg/mL (≈ 81.2 µM) | 0.02 µg/mL (≈ 0.049 µM) | 0.02 µg/mL (≈ 0.049 µM) | 0.03 µg/mL (≈ 0.0735 µM) | 0.005 µg/mL (≈ 0.0122 µM) |  |  |  |  |  |  |
| COCCCNCC(O)c1cc(C(F)(F)F)nc2c(C(F)(F)F)cccc12 (stereo not given) | 25.2 µg/mL (≈ 63.5 µM) | 0.051 µg/mL (≈ 0.129 µM) | 0.084 µg/mL (≈ 0.212 µM) | 0.086 µg/mL (≈ 0.217 µM) | 0.012 µg/mL (≈ 0.0303 µM) |  |  |  |  |  |  |
| CCCCNCC(O)c1cc(C(F)(F)F)nc2c(C(F)(F)F)cccc12 (stereo not given) | 2.96 µg/mL (≈ 7.8 µM) | 0.001 µg/mL (≈ 0.00263 µM) | 0.009 µg/mL (≈ 0.0237 µM) | 0.012 µg/mL (≈ 0.0316 µM) | 0.002 µg/mL (≈ 0.00526 µM) |  |  |  |  | 25 ×10⁻⁶ cm/s |  |
| CCCCCCNCC(O)c1cc(C(F)(F)F)nc2c(C(F)(F)F)cccc12 (stereo not given) |  | 0.372 µg/mL (≈ 0.911 µM) | 0.409 µg/mL (≈ 1 µM) | 0.481 µg/mL (≈ 1.18 µM) | 0.124 µg/mL (≈ 0.304 µM) |  |  |  |  |  |  |
| CCN(CC)CC(O)c1cc(C(F)(F)F)nc2c(C(F)(F)F)cccc12 (stereo not given) | 2.09 µg/mL (≈ 5.5 µM) | 0.026 µg/mL (≈ 0.0684 µM) | 0.037 µg/mL (≈ 0.0973 µM) | 0.067 µg/mL (≈ 0.176 µM) | 0.009 µg/mL (≈ 0.0237 µM) |  |  |  |  |  |  |
| OC(Cn1cnc2ccccc21)c1cc(C(F)(F)F)nc2c(C(F)(F)F)cccc12 (stereo not given) |  | 0.41 µg/mL (≈ 0.964 µM) | 0.48 µg/mL (≈ 1.13 µM) | 0.45 µg/mL (≈ 1.06 µM) | 0.12 µg/mL (≈ 0.282 µM) | 4 min |  |  |  |  |  |
| CCCCOCC(O)c1cc(C(F)(F)F)nc2c(C(F)(F)F)cccc12 (stereo not given) |  |  |  |  | > 0.5 µg/mL |  | > 0.5 µg/mL | > 0.5 µg/mL | > 0.5 µg/mL |  |  |
| CCCCSCC(O)c1cc(C(F)(F)F)nc2c(C(F)(F)F)cccc12 (stereo not given) |  |  |  |  | > 0.5 µg/mL |  | > 0.5 µg/mL | > 0.5 µg/mL | > 0.5 µg/mL |  |  |
| OC(CNCc1ccccc1)c1cc(C(F)(F)F)nc2c(C(F)(F)F)cccc12 (stereo not given) | 20.4 µg/mL (≈ 49.3 µM) | 0.067 µg/mL (≈ 0.162 µM) | 0.086 µg/mL (≈ 0.208 µM) | 0.151 µg/mL (≈ 0.364 µM) | 0.019 µg/mL (≈ 0.0459 µM) |  |  |  |  |  |  |
